IC50 data for 17 compounds are collected here from patent US20080200454A1, “CARBON-LINKED TETRAHYDRO-PYRAZOLO-PYRIDINE MODULATORS OF CATHEPSIN S” (priority 2007, published 2008).

Like-named read-outs stand apart in the source and are kept apart here.

The assay has as its target Recombinant human cathepsin S (CatS) (Homo sapiens, UniProt P25774). Briefly: Recombinant human cathepsin S (CatS) inhibition assay, fluorogenic substrate Z-Valine-Valine-Arginine-AMC.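 Also: Baculovirus-expressed CatS in pH 5.0 sodium acetate buffer with DTT and NaCl, fluorescence read each minute over 20 min, inhibition derived from rate slope.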

Recombinant human cathepsin S (CatS), sequence (P25774 115-331): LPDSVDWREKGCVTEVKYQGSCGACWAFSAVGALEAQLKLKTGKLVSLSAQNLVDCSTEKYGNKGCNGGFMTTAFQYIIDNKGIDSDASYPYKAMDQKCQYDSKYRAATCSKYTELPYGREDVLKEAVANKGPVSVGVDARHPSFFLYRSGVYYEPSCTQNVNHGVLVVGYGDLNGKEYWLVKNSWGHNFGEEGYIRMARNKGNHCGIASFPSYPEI

`CNC(=O)[C@@H]1Cc2ccc(C#Cc3cc(-c4nn(CCCN5CCOCC5)c5c4CN(S(C)(=O)=O)CC5)ccc3Cl)cc2CN1` [Example 192, (3S)-7-({2-Chloro-5-[5-(methylsulfonyl)-1-(3-morpholin-4-ylpropyl)-4,5,6,7-tetrahydro-1H-pyrazolo[4,3-c]pyridin-3-yl]phenyl}ethynyl)-N-methyl-1,2,3,4-tetrahydroisoquinoline-3-carboxamide]: the IC50 (commonly the concentration at which inhibition is half-maximal) (CatS IC50) amounted to 80 nM.

With `COc1ccc(C#Cc2cc(-c3nn(CCCN4CCOCC4)c4c3CN(S(C)(=O)=O)CC4)ccc2Cl)cc1` [Example 32, 3-[4-Chloro-3-(4-methoxy-phenylethynyl)-phenyl]-5-methanesulfonyl-1-(3-morpholin-4-yl-propyl)-4,5,6,7-tetrahydro-1H-pyrazolo[4,3-c]pyridine], the IC50 (CatS IC50) was 490 nM.

With `CCNCc1cc(C#Cc2cc(-c3nn(CCCN4CCCCC4)c4c3CN(S(C)(=O)=O)CC4)ccc2Cl)ccc1Cl` [Example 594, N-[2-Chloro-5-({2-chloro-5-[5-(methylsulfonyl)-1-(3-piperidin-1-ylpropyl)-4,5,6,7-tetrahydro-1H-pyrazolo[4,3-c]pyridin-3-yl]phenyl}ethynyl)benzyl]ethanamine], the half-inhibitory concentration (IC50) was 30 nM.

`CC1C(=O)NCCN1CCCn1nc(-c2ccc(Cl)c(C#Cc3ccc(CNCc4ccc(Cl)cc4)cc3)c2)c2c1CCN(S(C)(=O)=O)C2` (centres unmarked) [Example 406, 4-{3-[3-(4-Chloro-3-{[4-({[(4-chlorophenyl)methyl]amino}methyl)phenyl]ethynyl}phenyl)-5-(methylsulfonyl)-4,5,6,7-tetrahydro-1H-pyrazolo[4,3-c]pyridin-1-yl]propyl}-3-methylpiperazin-2-one]: the IC50 came to 460 nM.

Regarding `CC(C)(O)CNCc1cc(C#Cc2cc(-c3nn(CCCN4CCSCC4)c4c3CN(C(=O)C(N)=O)CC4)ccc2Cl)ccc1Cl` [Example 562, 2-[3-{4-Chloro-3-[(4-chloro-3-{[(2-hydroxy-2-methylpropyl)amino]methyl}phenyl)ethynyl]phenyl}-1-(3-thiomorpholin-4-ylpropyl)-1,4,6,7-tetrahydro-5H-pyrazolo[4,3-c]pyridin-5-yl]-2-oxoacetamide], the IC50 turned out to be 30 nM.

In the case of `NC(=O)N1CCc2c(c(-c3ccc(Cl)c(C#Cc4ccc(CNCc5ccc(Cl)cc5)cc4)c3)nn2C[C@@H](O)CN2CCOCC2)C1` [Example 259, (S)-3-(4-Chloro-3-{4-[(4-chloro-benzylamino)-methyl]-phenylethynyl}-phenyl)-1-(2-hydroxy-3-morpholin-4-yl-propyl)-1,4,6,7-tetrahydro-pyrazolo[4,3-c]pyridine-5-carboxylic acid amide], the IC50 was 80 nM.

With `COc1ccccc1C#Cc1cc(-c2nn(CCCN3CCOCC3)c3c2CN(S(C)(=O)=O)CC3)ccc1Cl` [Example 24, 3-[4-Chloro-3-(2-methoxy-phenylethynyl)-phenyl]-5-methanesulfonyl-1-(3-morpholin-4-yl-propyl)-4,5,6,7-tetrahydro-1H-pyrazolo[4,3-c]pyridine], where the note is “CatS IC50”, the IC50 was 560 nM.

Regarding `NC(=O)N1CCc2c(c(-c3ccc(Cl)c(C#Cc4ccc(Cl)c(CNC5CC5)c4)c3)nn2CCCN2CCCCC2)C1` [Example 596, 3-[4-Chloro-3-({4-chloro-3-[(cyclopropylamino)methyl]phenyl}ethynyl)phenyl]-1-(3-piperidin-1-ylpropyl)-1,4,6,7-tetrahydro-5H-pyrazolo[4,3-c]pyridine-5-carboxamide], for the setting “CatS IC50”, the IC50 stood at 30 nM.

As for `Cc1ccc(S(=O)(=O)NCCCc2cc(-c3nn(CCCN4CCOCC4)c4c3CN(S(C)(=O)=O)CC4)ccc2Cl)cc1` [Example 84, N-(3-{2-Chloro-5-[5-methanesulfonyl-1-(3-morpholin-4-yl-propyl)-4,5,6,7-tetrahydro-1H-pyrazolo[4,3-c]pyridin-3-yl]-phenyl}-propyl)-4-methyl-benzenesulfonamide], the IC50 came to 8100 nM.

For `CS(=O)(=O)N1CCc2c(c(-c3ccc(Cl)c(CCCNS(=O)(=O)c4ccc(Cl)cc4)c3)nn2CCCN2CCOCC2)C1` [Example 83, 4-Chloro-N-(3-{2-chloro-5-[5-methanesulfonyl-1-(3-morpholin-4-yl-propyl)-4,5,6,7-tetrahydro-1H-pyrazolo[4,3-c]pyridin-3-yl]-phenyl}-propyl)-benzenesulfonamide], the IC50 is 7100 nM.

Take `Cc1ccsc1CNCc1ccc(C#Cc2cc(-c3nn(CCCN4CCOCC4)c4c3CN(S(C)(=O)=O)CC4)ccc2Cl)cc1` [Example 424, 1-[4-({2-Chloro-5-[5-(methylsulfonyl)-1-(3-morpholin-4-ylpropyl)-4,5,6,7-tetrahydro-1H-pyrazolo[4,3-c]pyridin-3-yl]phenyl}ethynyl)phenyl]-N-[(3-methyl-2-thienyl)methyl]methanamine]: the IC50 (CatS IC50) is 200 nM.

As for `CC(C)CNCc1cccc(C#Cc2cc(-c3nn(CCCN4CCOCC4)c4c3CN(S(C)(=O)=O)CC4)ccc2Cl)c1` [Example 520, N-{[3-({2-Chloro-5-[5-(methylsulfonyl)-1-(3-morpholin-4-ylpropyl)-4,5,6,7-tetrahydro-1H-pyrazolo[4,3-c]pyridin-3-yl]phenyl}ethynyl)phenyl]methyl}-2-methylpropan-1-amine], the IC50 (CatS IC50) turned out to be 440 nM.

As for `NC(=O)N1CCc2c(c(-c3ccc(Cl)c(C#Cc4ccc(Cl)c(CN5CCOCC5)c4)c3)nn2CCCN2CCSCC2)C1` [Example 606, 3-(4-Chloro-3-{[4-chloro-3-(morpholin-4-ylmethyl)phenyl]ethynyl}phenyl)-1-(3-thiomorpholin-4-ylpropyl)-1,4,6,7-tetrahydro-5H-pyrazolo[4,3-c]pyridine-5-carboxamide], for the setting “CatS IC50”, the IC50 came to 40 nM.

For `NC(=O)N1CCc2c(c(-c3ccc(Cl)c(C#Cc4ccc(C(=O)NCCN5CCOCC5)cc4)c3)nn2CCCN2CCSCC2)C1` [Example 607, 3-[4-Chloro-3-({4-[(2-morpholin-4-ylethyl)carbamoyl]phenyl}ethynyl)phenyl]-1-(3-thiomorpholin-4-ylpropyl)-1,4,6,7-tetrahydro-5H-pyrazolo[4,3-c]pyridine-5-carboxamide], where the note is “CatS IC50”, the IC50 was found to be 50 nM.

Turning to `CS(=O)(=O)N1CCc2c(c(-c3ccc(Cl)c(C#CCO)c3)nn2CCCN2CCC(N3CCCC3=O)CC2)C1` [Example 310, 1-[1-(3-{3-[4-Chloro-3-(3-hydroxyprop-1-yn-1-yl)phenyl]-5-(methylsulfonyl)-4,5,6,7-tetrahydro-1H-pyrazolo[4,3-c]pyridin-1-yl}propyl)piperidin-4-yl]pyrrolidin-2-one], the IC50 came out at 2120 nM.

`CS(=O)(=O)N1CCc2c(c(-c3ccc(Cl)c(C#Cc4cccc(CNc5ccccc5)c4)c3)nn2CCCN2CCOCC2)C1` [Example 511, N-{[3-({2-Chloro-5-[5-(methylsulfonyl)-1-(3-morpholin-4-ylpropyl)-4,5,6,7-tetrahydro-1H-pyrazolo[4,3-c]pyridin-3-yl]phenyl}ethynyl)phenyl]methyl}aniline]: under “CatS IC50”, the IC50 is 1610 nM.

With `CS(=O)(=O)N1CCc2c(c(-c3ccc(Cl)c(C#Cc4cccnc4)c3)nn2CCCN2CCOCC2)C1` [Example 21, 3-(4-Chloro-3-pyridin-3-ylethynyl-phenyl)-5-methanesulfonyl-1-(3-morpholin-4-yl-propyl)-4,5,6,7-tetrahydro-1H-pyrazolo[4,3-c]pyridine], the IC50 was 1320 nM.
